In publication PMC10065799, “High-throughput profiling of sequence recognition by tyrosine kinases and SH2 domains using bacterial peptide display” (eLife, 2023):

How the values were obtained:
FGFR1 kinase domain = assay: pTyr-Var library bacterial peptide display kinase screen (enrichment scores); type: biochemical, human
MERTK kinase domain = assay: as above; type: biochemical, human
[1] = tested on: 4G10 Platinum pan-phosphotyrosine antibody; assay: Phosphorylated pTyr-Var library selection with biotinylated pan-phosphotyrosine antibody; type: binding, mouse; conditions: enrichment score, sheet SH2-vs-peptide
EPHB2 kinase domain [2] = assay: pTyr-Var library bacterial peptide display kinase screen (enrichment scores); type: biochemical, human
FGFR3 kinase domain = assay: as above; type: biochemical, human
EPHB1 kinase domain = assay: as above; type: biochemical, human
Fyn kinase domain = assay: as above; type: biochemical, human;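 on Fyn hit?: Hit requires p below 0.05 and at least twofold variant vs reference change plus filters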
Fer kinase domain = assay: as above; type: biochemical, mouse;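 on Fer hit?: Hit requires p below 0.05 and at least twofold variant vs reference change plus filters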
Jak2 = assay: as above; type: biochemical, human
c-Src kinase domain [3] = target: T1, c-Src kinase domain (Homo sapiens, UniProt P12931); assay: as above; type: biochemical
AncSZ kinase domain = assay: as above; type: biochemical;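 on AncSZ hit?: Hit requires p below 0.05 and at least twofold variant vs reference change plus filters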
Fes = assay: as above; type: biochemical
SHP2 C-SH2 domain = assay: pTyr-Var library SH2 domain screen with SH2-dynabeads (enrichment scores)
Grb2 SH2 domain = assay: as above
c-Abl kinase domain [4] = target: T2, c-Abl kinase domain (Mus musculus, UniProt P00520); assay: pTyr-Var library bacterial peptide display kinase screen (enrichment scores); type: biochemical
T2 sequence (P00520 242-493 limits assumed): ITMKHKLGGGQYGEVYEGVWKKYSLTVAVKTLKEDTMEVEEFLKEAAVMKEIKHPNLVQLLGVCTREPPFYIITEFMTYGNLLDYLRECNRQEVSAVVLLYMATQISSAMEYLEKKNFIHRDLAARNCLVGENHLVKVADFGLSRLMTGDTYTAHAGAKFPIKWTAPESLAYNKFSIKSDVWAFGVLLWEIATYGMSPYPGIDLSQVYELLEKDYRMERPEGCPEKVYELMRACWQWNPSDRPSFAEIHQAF

c-Src SH2 domain = c-Src SH2 domain (Homo sapiens, UniProt P12931); assay: pTyr-Var library SH2 domain screen with SH2-dynabeads (enrichment scores); conditions: sheet c-Src
Hck kinase domain = assay: pTyr-Var library bacterial peptide display kinase screen (enrichment scores); type: biochemical, human
EPHB2 kinase domain [5] = assay: ADP-Quest continuous fluorimetric kinase assay (initial rates of consensus peptides); type: biochemical, human; conditions: peptide 100 μM, kinase 10–50 nM; Figure 2C
From the text: A fluorescence-based assay from Eurofins (ADP Quest) was used to measure the Michaelis-Menten kinetic parameters for phosphorylation of the consensus peptides by purified tyrosine kinase domains. In this assay, ADP production as a result of kinase activity is coupled to the production of resorufin, a fluorophore that emits signal at 590 nm. For all experiments, the assay reactions were set up as described in the provided assay kit protocol, in a 384 well plate format. The peptide solutions were serially diluted in 100 mM Tris, pH 8.0, and the kinases were diluted to 50 nM in buffer (10 mM HEPES, 100 mM NaCl, 1 mM TCEP, 5 mM MgCl2, 10% (v/v) glycerol). The final reaction mixtures contained 10 nM of kinase with 100 μM of ATP. […] Phosphorylation reaction progress was monitored by measuring fluorescence at excitation 530 nm and emission 590 nm every 2 min at 37 °C on a plate reader (BioTek Synergy Neo 2). The fluorescence units (RFU) were converted to μM ADP by comparison to a standard curve, and the initial rates were extracted from the linear regime of the reaction progress curves. Initial rates were also measured for samples containing each kinase but lacking a peptide substrate, to account for background ATP hydrolysis. This background rate was subtracted from the rates measured in the presence of peptide. […]

c-Src kinase domain [6] = target: T1, c-Src kinase domain; assay: ADP-Quest continuous fluorimetric kinase assay (Michaelis-Menten parameters and initial rates); type: biochemical; conditions: c-Src kinase domain 10 nM, 100 μM ATP, 37 °C, three to five replicates, error = standard error of global Michaelis-Menten fit
From the text: (§1) A fluorescence-based assay from Eurofins (ADP Quest) was used to measure the Michaelis-Menten kinetic parameters for phosphorylation of the consensus peptides by purified tyrosine kinase domains. In this assay, ADP production as a result of kinase activity is coupled to the production of resorufin, a fluorophore that emits signal at 590 nm. For all experiments, the assay reactions were set up as described in the provided assay kit protocol, in a 384 well plate format. The peptide solutions were serially diluted in 100 mM Tris, pH 8.0, and the kinases were diluted to 50 nM in buffer (10 mM HEPES, 100 mM NaCl, 1 mM TCEP, 5 mM MgCl2, 10% (v/v) glycerol). The final reaction mixtures contained 10 nM of kinase with 100 μM of ATP. Reactions were initiated with the addition of 1 mM ATP into a 50 μL reaction mixture for a final concentration of 100 μM ATP. Phosphorylation reaction progress was monitored by measuring fluorescence at excitation 530 nm and emission 590 nm every 2 min at 37 °C on a plate reader (BioTek Synergy Neo 2). The fluorescence units (RFU) were converted to μM ADP by comparison to a standard curve, and the initial rates were extracted from the linear regime of the reaction progress curves. Initial rates were also measured for samples containing each kinase but lacking a peptide substrate, to account for background ATP hydrolysis. This background rate was subtracted from the rates measured in the presence of peptide. The subtracted rates were plotted as a function of substrate concentration and fit to the Michaelis-Menten equation to extract kcat and KM values.

c-Abl kinase domain [7] = target: T2, c-Abl kinase domain; assay: as above; type: biochemical; conditions: c-Abl kinase domain 10 nM, 100 μM ATP, 37 °C, three to five replicates, error = standard error of global Michaelis-Menten fit
From the text: as §1

[8] = mean of log2(variant) minus mean of log2(reference)
[9] = mean of log2 enrichment of variant peptide, n = 5
[10] = pTyr-Var library, variant peptide enrichment, mean of n = 5
[11] = mean of log2 enrichment of variant peptide, n = 4
[12] = pTyr-Var library, variant peptide enrichment, mean of n = 4
[13] = mean of log2 of enrichment over R1-R4
[14] = pTyr-Var library, enrichment score, replicate 1
[15] = pTyr-Var library, enrichment score, replicate 3
[16] = pTyr-Var library, enrichment score, replicate 4
[17] = variant versus reference peptide
[18] = variant versus reference peptide, significant hit TRUE/FALSE
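Wherever c-Src hit? is given: Hit requires p below 0.05 and at least twofold variant vs reference change plus filters.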

Substance: ATVQNYLPKCI [A2M_Y817_L815Q]
- difference (FGFR1 kinase domain; [8]): -0.151
- mean of log2(variant) (FGFR1 kinase domain; [9]): -1.149
- var. mean (FGFR1 kinase domain; [10]): 0.4624
- difference (MERTK kinase domain; [8]): -0.01109
- mean of log2(variant) (MERTK kinase domain; [11]): -1.438
- var. mean (MERTK kinase domain; [12]): 0.3721
- 4G10 (mean) [1]: 0.5753
- difference (EPHB2 kinase domain [2]; [8]): -0.2469
- mean of log2(variant) (EPHB2 kinase domain [2]; [11]): -1.144
- var. mean (EPHB2 kinase domain [2]; [12]): 0.4818
- difference (FGFR3 kinase domain; [8]): -0.3951
- mean of log2(variant) (FGFR3 kinase domain; [9]): -1.056
- var. mean (FGFR3 kinase domain; [10]): 0.4887
- difference (EPHB1 kinase domain; [8]): -0.7634
- mean of log2(variant) (EPHB1 kinase domain; [11]): -1.369
- var. mean (EPHB1 kinase domain; [12]): 0.3903
- Fyn mean of log2(enrichment) (Fyn kinase domain; [13]): -1.466
- Fyn enrich. R1 (Fyn kinase domain; [14]): 0.4872
- Fyn enrich. R3 (Fyn kinase domain; [15]): 0.3635
- Fyn enrich. R4 (Fyn kinase domain; [16]): 0.2869
- Fyn difference (mean log2 variant - mean log2 reference) (Fyn kinase domain; [17]): -0.247
- Fyn hit? (Fyn kinase domain; [18]): FALSE
- Fer mean of log2(enrichment) (Fer kinase domain; [13]): -1.311
- Fer enrich. R1 (Fer kinase domain; [14]): 0.4446
- Fer enrich. R3 (Fer kinase domain; [15]): 0.4557
- Fer enrich. R4 (Fer kinase domain; [16]): 0.3278
- Fer difference (mean log2 variant - mean log2 reference) (Fer kinase domain; [17]): -0.03599
- Fer hit? (Fer kinase domain; [18]): FALSE
- Jak2 mean of log2(enrichment) (Jak2; mean of log2 of enrichment over R1-R3): -0.5861
- Jak2 enrich. R1 (Jak2; [14]): 0.5921
- Jak2 enrich. R3 (Jak2; [15]): 0.5314
- Jak2 difference (mean log2 variant - mean log2 reference) (Jak2; [17]): -0.3549
- Jak2 hit? (Jak2; [18]): FALSE
- c-Src mean of log2(enrichment) (c-Src kinase domain [3]; [13]): -1.474
- c-Src enrich. R1 (c-Src kinase domain [3]; [14]): 0.3685
- c-Src enrich. R3 (c-Src kinase domain [3]; [15]): 0.3322
- c-Src enrich. R4 (c-Src kinase domain [3]; [16]): 0.416
- c-Src difference (mean log2 variant - mean log2 reference) (c-Src kinase domain [3]; [17]): -0.08063
- c-Src hit? (c-Src kinase domain [3]; [18]): FALSE
- AncSZ mean of log2(enrichment) (AncSZ kinase domain; mean of log2 of enrichment over R1-R5): -0.7038
- AncSZ enrich. R1 (AncSZ kinase domain; [14]): 0.6587
- AncSZ enrich. R3 (AncSZ kinase domain; [15]): 0.7943
- AncSZ enrich. R4 (AncSZ kinase domain; [16]): 0.5045
- AncSZ enrich. R5 (AncSZ kinase domain; pTyr-Var library, enrichment score, replicate 5): 0.4741
- AncSZ difference (mean log2 variant - mean log2 reference) (AncSZ kinase domain; [17]): -0.2377
- AncSZ hit? (AncSZ kinase domain; [18]): FALSE
- Fes mean of log2(enrichment) (Fes; mean of log2 of enrichment over R1-R6): -0.2803
- Fes difference (mean log2 variant - mean log2 reference) (Fes; [17]): -0.2401
- difference (SHP2 C-SH2 domain; SHP2-C SH2, mean of log2(variant) minus mean of log2(reference)): -0.37
- mean of log2(variant) (SHP2 C-SH2 domain; SHP2-C SH2, mean of log2 enrichment of variant, R1-R3): -0.8263
- hit? (SHP2 C-SH2 domain; SHP2-C SH2, variant versus reference significant hit call): FALSE
- var. mean (SHP2 C-SH2 domain; variant peptide enrichment score, SHP2-C SH2, mean of R1-R3): 0.5806
- difference (Grb2 SH2 domain; Grb2 SH2, mean of log2(variant) minus mean of log2(reference)): -0.167
- mean of log2(variant) (Grb2 SH2 domain; Grb2 SH2, mean of log2 enrichment of variant, R1-R3): -0.3239
- hit? (Grb2 SH2 domain; Grb2 SH2, variant versus reference significant hit call): FALSE
- var. mean (Grb2 SH2 domain; variant peptide enrichment score, Grb2 SH2, mean of R1-R3): 0.8266
- c-Abl mean of log2(enrichment) (c-Abl kinase domain [4]; [13]): -0.576
- c-Abl enrich. R1 (c-Abl kinase domain [4]; [14]): 0.4837
- c-Abl enrich. R3 (c-Abl kinase domain [4]; [15]): 0.713
- c-Abl enrich. R4 (c-Abl kinase domain [4]; [16]): 0.6552
- c-Abl hit? (c-Abl kinase domain [4]; [18]): FALSE
- difference (c-Src SH2 domain; [8]): -0.03544
- mean of log2(variant) (c-Src SH2 domain; mean of log2 enrichment of variant peptide, R1-R3): -1.014
- var. mean (c-Src SH2 domain; variant peptide, mean of R1-R3): 0.4965
- Hck mean of log2(enrichment) (Hck kinase domain; mean of log2(variant) / mean of log2(reference), R1-R4): 0.3462
- Hck enrich. R1 (Hck kinase domain; [14]): 0.3734
- Hck enrich. R3 (Hck kinase domain; [15]): 0.3895
- Hck enrich. R4 (Hck kinase domain; [16]): 0.2207
- Hck difference (variant - reference) (Hck kinase domain; [17]): -0.2528
- Hck hit? (Hck kinase domain; [18]): FALSE

Substance: Ac-GPDEPIYAVPPIKKKG-NH2 [Abl Consensus, c-Abl consensus substrate peptide from X5-Y-X5 screen]
- phosphorylation of consensus peptide by EPHB2 (initial rate relative to cognate consensus) (EPHB2 kinase domain [5]): efficiently phosphorylated
- Km (c-Src kinase domain [6]): 159 ± 31 µM
- kcat (c-Src kinase domain [6]): 2.0±0.2 s^–1
- Km (c-Abl kinase domain [7]): 6 ± 2 µM
- kcat (c-Abl kinase domain [7]): 3.0±0.2 s^–1
